Results as given in paper PMC9783783 (Pharmaceutics, 2022).

Columns and labels:
[1] = Description: Enzyme kinetics in the hepatic and intestinal microsomes were determined according to a previously reported method. Microsomal protein concentrations in the liver and intestine were measured using bicinchoninic acid assay. […] The total volume was adjusted to 1 mL by adding 0.1 M phosphate-buffered solution (pH 7.4) to the system, and the samples were incubated for 15 min in a water-bath shaker at 37 °C at the rate of 50 oscillations per min. The reaction was completed by adding 2 volumes of methanol. Subsequently, two 50 μL aliquots of each reaction mixture were collected.
P-gp = conditions: cited from earlier work
[2] = rats (n = 3), 10 mg/kg i.v.; cited from earlier work
[3] = rats, intraportal administration; cited from earlier work
in vitro = conditions: for fraction unbound at 24 h, 10 μg/mL: rat, plasma, pH 7.4, Plasma protein binding
Description: Rat plasma (1 mL) from each group was dialyzed against 1 mL of isotonic Sørensen phosphate buffer (pH 7.4) containing 3% dextran (“the buffer”) via a Spectra/Por 2 membrane (molecular weight cutoff: 12,000–14,000 Da; Spectrum Medical Industries, Los Angeles, CA, USA). […] The binding percentage (%) was calculated as follows:(1) Binding %=CP−CB/CP×100

[4] = various pH buffers (pH 2–10) and gastric juice (pH 3.5), 24 h; cited from earlier work
in vivo = conditions: for AUC / clearance / CL renal / half-life / Vd / Cmax / bioavailability / Tmax: rat, in vivo; for clearance: CL; for CL renal: CLR; for half-life: Terminal half-life; for Vd: Vss; for bioavailability: F (absolute oral bioavailability), 20 mg/kg oral vs 10 mg/kg i.v.
Description: All surgical procedures were performed following anesthesia with 100 mg/kg ketamine according to a previously reported method. For the intravenous study, the carotid artery and jugular vein were cannulated for blood sampling and drug administration, respectively. For the oral study, rats were restrained from food overnight but were allowed to drink water ad libitum. Only the carotid artery was cannulated for the blood sampling.
A heparinized 0.9% NaCl-injectable solution (10 IU/mL) was immediately flushed into the carotid artery after collecting the blood samples to prevent blood clotting.
The volume of the combined urine was then measured, and two 100 μL aliquot samples were collected. At the same time, the rat abdomen was surgically opened, and the whole gastrointestinal tract was collected in a beaker containing 50 mL methanol and cut into small pieces. After even mixing, 50 µL of the supernatant was collected.
Pharmacokinetic parameters were estimated using the standard method by non-compartmental analysis (WinNonlin; Pharsight Corporation, Mountain View, CA, USA). AUC values were calculated using the trapezoidal rule–extrapolation method. The peak plasma concentration (Cmax) and time to reach Cmax (Tmax) were measured directly from the plasma concentration–time curves. […] The glomerular filtration rate was measured by calculating the CLCR, assuming that the kidney function was stable during the experimental period.

[5] = human, oral; cited from earlier work
[6] = hepatic microsomes, LC rats vs CON rats
[7] = LC rats vs CON rats, 10 mg/kg i.v.
[8] = LC rats vs CON rats, 20 mg/kg oral
[9] = LC-ISN rats vs CON rats, 10 mg/kg i.v.
[10] = LC-ISN rats vs CON rats, 20 mg/kg oral
[11] = LC-ISN rats vs LC rats, 10 mg/kg i.v.
[12] = LC-ISN rats vs LC rats, 20 mg/kg oral
[13] = iv, 10 mg/kg, CON rats, 10 mg/kg i.v. 1 min infusion
[14] = iv, 10 mg/kg, LC rats, 10 mg/kg i.v. 1 min infusion
[15] = iv, 10 mg/kg, LC-ISN rats, 10 mg/kg i.v. 1 min infusion
[16] = iv, 10 mg/kg, CON rats, 10 mg/kg i.v.
[17] = iv, 10 mg/kg, LC rats, 10 mg/kg i.v.
[18] = iv, 10 mg/kg, LC-ISN rats, 10 mg/kg i.v.
[19] = po, 20 mg/kg, CON rats, 20 mg/kg oral
[20] = po, 20 mg/kg, LC rats, 20 mg/kg oral
[21] = po, 20 mg/kg, LC-ISN rats, 20 mg/kg oral

CC1CCN(C(=O)CC#N)CC1N(C)c1ncnc2[nH]ccc12 (stereo not drawn) [tofacitinib, 3-(4-methyl-3-(methyl(7H-pyrrolo[2,3-d]pyrimidin-4yl)amino)piperidin-1-yl)-3-oxopropanenitrile]
Km for disappearance of tofacitinib ([1]; hepatic microsomes, CON, LC and LC-ISN rats): comparable among the three groups of rats | Decrease in hepatic CLint [1, 6]: 64.9% | Slower Vmax for disappearance of tofacitinib [1, 6]: 63.4% | Hepatic CLint recovered to % of CON rats ([1]; hepatic microsomes, LC-ISN rats vs CON rats): 92.2% | Intestinal CLint ([1]; intestinal microsomes, CON, LC and LC-ISN rats): not significantly different among the three groups of rats | P-gp substrate (P-gp): substrate of P-gp | Biliary excretion [2]: 0.703 % of the unchanged drug dose | Hepatic first-pass effect [3]: 42.0% | Decrease in plasma protein binding (in vitro; LC rats vs CON rats): 28.3% | Decrease in plasma protein binding (in vitro; LC-ISN rats vs CON rats): 21.5% | fraction unbound at 24 h, 10 μg/mL (in vitro; CON rat plasma, 10 μg/mL tofacitinib, 37 °C, 24 h): 0.749 | fraction unbound at 24 h, 10 μg/mL (in vitro; LC rat plasma, 10 μg/mL tofacitinib, 37 °C, 24 h): 0.82 | fraction unbound at 24 h, 10 μg/mL (in vitro; LC-ISN rat plasma, 10 μg/mL tofacitinib, 37 °C, 24 h): 0.803 | fraction unbound at 24 h, 10 μg/mL (in vitro; range over CON, LC and LC-ISN rats): 0.749 to 0.82 | Stability [4]: stable | Ae0–24 h (excreted in urine as unchanged for 24 h) (in vivo; CON rats, 10 mg/kg i.v.): 13.9 ± 2.28 % of dose | CLNR (in vivo; CON rats, 10 mg/kg i.v.): 21.1 ± 4.57 mL/min/kg | GI24 h (remained in the gastrointestinal tract at 24 h) (in vivo; CON rats, 10 mg/kg i.v.): 0.164 ± 0.102 % of dose | Ae0–24 h (in vivo; CON rats, 20 mg/kg oral): 11.8 ± 4.08 % of dose | GI24 h (in vivo; CON rats, 20 mg/kg oral): 0.106 ± 0.101 % of dose | Greater Ae0–24 h (in vivo; [7]): 189% | Increase in AUC (in vivo; [7]): 158% | Increase in Vss (in vivo; [7]): 86.0% | Longer terminal half-life (in vivo; [7]): 219% | Slower CL (in vivo; [7]): 54.4% | Slower CLNR (in vivo; [7]): 69.9% | Increase in AUC (in vivo; [8]): 429% | Increase in Ae0–24 h (in vivo; [8]): 203% | Increase in Cmax (in vivo; [8]): 158% | Increase in F (in vivo; [8]): 105% | Ae0–24 h (excreted in urine as unchanged for 24 h) (in vivo; LC rats, 10 mg/kg i.v.): 40.2 ± 18.9 % of dose | CLNR (in vivo; LC rats, 10 mg/kg i.v.): 6.35 ± 1.27 mL/min/kg | GI24 h (remained in the gastrointestinal tract at 24 h) (in vivo; LC rats, 10 mg/kg i.v.): 2.07 ± 2.12 % of dose | Ae0–24 h (in vivo; LC rats, 20 mg/kg oral): 35.8 ± 16.9 % of dose | GI24 h (in vivo; LC rats, 20 mg/kg oral): 1.73 ± 2.04 % of dose | Greater Ae0–24 h (in vivo; [9]): 117% | Increase in terminal half-life (in vivo; [9]): 64.4% | Slower CL (in vivo; [9]): 42.7% | Slower CLNR (in vivo; [9]): 54.1% | Increase in AUC (in vivo; [10]): 223% | Increase in Ae0–24 h (in vivo; [10]): 204% | Increase in Cmax (in vivo; [10]): 72.2% | Increase in F (in vivo; [10]): 92.9% | Decrease in AUC (in vivo; [11]): 35.1% | Decrease in terminal half-life (in vivo; [11]): 48.5% | Decrease in AUC (in vivo; [12]): 38.9% | Decrease in Cmax (in vivo; [12]): 33.2% | Ae0–24 h (excreted in urine as unchanged for 24 h) (in vivo; LC-ISN rats, 10 mg/kg i.v.): 30.1 ± 12.3 % of dose | CLNR (in vivo; LC-ISN rats, 10 mg/kg i.v.): 9.68 ± 2.40 mL/min/kg | GI24 h (remained in the gastrointestinal tract at 24 h) (in vivo; LC-ISN rats, 10 mg/kg i.v.): 0.166 ± 0.135 % of dose | Ae0–24 h (in vivo; LC-ISN rats, 20 mg/kg oral): 35.9 ± 16.8 % of dose | GI24 h (in vivo; LC-ISN rats, 20 mg/kg oral): 0.340 ± 0.288 % of dose | AUC (in vivo; [13]): 7330 ng·h/mL | AUC (in vivo; [14]): 18900 ng·h/mL | AUC (in vivo; [15]): 12300 ng·h/mL | clearance (in vivo; [16]): 24.1 ± 6.27 mL/min/kg | clearance (in vivo; [17]): 11 ± 2.06 mL/min/kg | clearance (in vivo; [18]): 13.8 ± 1.73 mL/min/kg | CL renal (in vivo; [16]): 3.73 ± 1.09 mL/min/kg | CL renal (in vivo; [17]): 4.65 ± 2.74 mL/min/kg | CL renal (in vivo; [18]): 4.1 ± 1.64 mL/min/kg | half-life (in vivo; [13]): 35.4 ± 19.2 min | half-life (in vivo; [14]): 113 ± 43.7 min | half-life (in vivo; [15]): 58.2 ± 16.8 min | Vd (in vivo; [16]): 0.429 ± 0.253 L/kg | Vd (in vivo; [17]): 0.798 ± 0.177 L/kg | Vd (in vivo; [18]): 0.8 ± 0.326 L/kg | AUC (in vivo; [19]): 6400 ng·h/mL | AUC (in vivo; [20]): 33800 ng·h/mL | AUC (in vivo; [21]): 20700 ng·h/mL | CL renal (in vivo; [19]): 6.98 ± 2.99 mL/min/kg | CL renal (in vivo; [20]): 3.62 ± 1.78 mL/min/kg | CL renal (in vivo; [21]): 5.71 ± 2.47 mL/min/kg | Cmax (in vivo; [19]): 3530 ± 1460 ng/mL | Cmax (in vivo; [20]): 9100 ± 1260 ng/mL | Cmax (in vivo; [21]): 6080 ± 1990 ng/mL | bioavailability (in vivo; po, 20 mg/kg, CON rats): 43.6% | bioavailability (in vivo; po, 20 mg/kg, LC rats): 89.5% | bioavailability (in vivo; po, 20 mg/kg, LC-ISN rats): 84.1% | Tmax (in vivo; [19]): 50 min | Tmax (in vivo; [20]): 55.7 min | Tmax (in vivo; [21]): 85.7 min | GI24 h (in vivo; the three groups of rats, 20 mg/kg oral): less than 1.73 % of the oral dose | Fraction excreted by the kidneys in unmetabolized form [5]: 30%
